Test: Modulated differential scanning calorimetry (MDSC/DSC), thermal stability / decomposition
Format: physicochemical
Details: for onset of decomposition: MDSC data
From the text: Differential Scanning Calorimetry (DSC) measures heat flow as a function of time or temperature and is used to study material transformation whether they be physical, such as phase changes, or chemical, such as decomposition. There are several parameters that can be obtained from a DSC thermogram. In the present work, the focus was on the onset temperature, the temperature of the peak minimum, and the peak width. DSC information is useful in understanding the purity and nature of material. For example, when a pure crystalline substance melts, the melting point is sharp. In DSC, that sharpness is shown by a narrow melting peak in the thermogram. If there are impurities or defects in the crystalline nature, the melting takes place at lower temperatures and over a larger range of temperatures. In DSC, the impurities are shown by a lower onset temperature and peak temperature, and a broader peak in the thermogram. When there are discrete impurities, they can melt at their melting points. In DSC, discrete impurities can be shown by additional peaks in the thermogram.
While a decomposition curve is usually broader and can be more complicated, some of the same phenomena are seen as with melting. Impurities and defects will cause broader and lower temperature peaks. Discrete impurities can show their own decomposition peaks.
These were made at slightly different stoichiometries. The onset temperature, the temperature at peak minimum, and the peak width are labeled.

[1] = modulated DSC thermogram, spray-dried polymorph of PMC2, K:Mg ratio less than 4.0

Compound	onset of decomposition	endothermic peak for decomposition: onset temperature [1]	endothermic peak for decomposition: peak minimum temperature [1]	endothermic peak for decomposition: peak width [1]	DSC decomposition behaviour (in words) (spray-dried sample in a vented pan, compared to sample dried in an oven or at room temperature)
O=C([O-])CC(O)(CC(=O)[O-])C(=O)[O-].O=C([O-])CC(O)(CC(=O)[O-])C(=O)[O-].[K+].[K+].[K+].[K+].[Mg+2] [PMC2, potassium magnesium citrate]	approximately 310 °C	greater than 320 °C	greater than 327 °C	less than 9 °C	
O=C([O-])CC(O)(CC(=O)[O-])C(=O)[O-].O=C([O-])CC(O)(CC(=O)[O-])C(=O)[O-].[K+].[K+].[K+].[K+].[Mg+2] [PMC, potassium magnesium citrate]					decomposed at a much lower temperature and with a broader decomposition peak
O=C([O-])CC(O)(CC(=O)[O-])C(=O)[O-].[K+].[K+].[K+] [potassium citrate, reference compound]	260 °C				
magnesium citrate [reference compound]	250 °C				

Reference: patent publication US20050197402A1 (priority 2004, published 2005)
